Values after ≈ are worked out from the molar mass of the structure shown.
Tests used:
[1] = system: C. tropicalis ATCC 200956; test: MIC, CLSI M27 broth microdilution; assay type: cell-based, Candida tropicalis; details: C. tropicalis ATCC 200956; for MIC Range / MIC: antifungal drugs; for MIC: Candida tropicalis, ATCC200956, geometric mean, read-out: MIC GM
Method in brief: (§1)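 CLSI M27 (4th ed.) broth microdilution, modified for essential oils and terpenes: yeasts grown on SDA 24 h at 35 °C, inoculum 2.5 × 10^3 CFU/mL in RPMI 1640-MOPS, two-fold dilutions at 0.5–256 µg/mL final. Visual MIC after 24 h at 35 °C; ≥3 runs in duplicate, reported as geometric mean and range.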

[2] = system: C. tropicalis ATCC 750; test: MIC, CLSI M27 broth microdilution; assay type: cell-based, Candida tropicalis; details: antifungal drugs; for MIC: Candida tropicalis, ATCC750, geometric mean
Method in brief: as §1

[3] = system: C. glabrata LMDM 34; test: MIC, CLSI M27 broth microdilution; assay type: cell-based, Candida glabrata; details: antifungal drugs; for MIC: Nakaseomyces glabratus, LMDM34, geometric mean
Description: The fungal strains used in this study were C. albicans ATCC 10231, C. albicans ATCC 64550, C. parapsilosis ATCC 22019, C. tropicalis ATCC 750, C. tropicalis ATCC 200956 (resistant to azoles and AMB), C. glabrata LMDM 34 (resistant to echinocandins), C. metapsilosis MUM 15.12, C. orthopsilosis MUM 17.13, C. lusitaniae MUM 17.08, C. krusei ATCC 6258 (Issatchenkia orientalis ATCC 6258), and C. auris CDC B11903. Additionally, nine clinical isolates were included: C. parapsilosis Synlab 406 (FLC-resistant) and eight C. auris isolates identified by MALDI-TOF MS (Bruker Daltonics, Bremen, Germany) according to Zhao et al.. These yeasts were cultured on Sabouraud Dextrose Agar (SDA; Sigma-Aldrich, St. Louis, MO, USA) for 24 h at 35 °C.
Antifungal susceptibility testing was performed according to Clinical and Laboratory Standards Institute M27, 4th Edition (CLSI standard M27, 4th Edition). Some modifications were applied for evaluation of the antifungal activity of EOs and terpenes. Initially, a screening was carried out to determine the antifungal activity of the EOs and of commercial terpenes. Stock concentrations of EOs and terpenes were prepared at 512 µg/mL and an inoculum of 2.5 × 10^3 CFU/mL of each yeast was prepared in RPMI 1640-MOPS (Sigma- Aldrich St. Louis, MO, USA). Thereafter, 100 µL of each stock solution of EOs or terpenes was dispensed in 96-well microdilution plates (Corning®, Costar®, NY, USA) and 100 µL of each yeast inoculum was added. […] Microdilution plates were incubated at 35 °C and, after 24 h, the presence or absence of growth was visually checked using a manual mirror viewer and then compared with the amount of growth in the control (no EO or terpene). Compounds able to inhibit yeast growth were tested to determine the minimal inhibitory concentration (MIC) as follows: 100 µL of 10 two-fold dilutions of the EOs or commercial terpenes was dispensed in 96-well microplates and the yeast inoculum was added. Final concentrations of the EOs or terpenes ranged from 0.5 µg/mL to 256 µg/mL. Microdilution plates were incubated at 35 °C for 24 h. MICs were visually determined at the lowest concentration that produced visual inhibition compared to the growth control. The assays were performed at least three times in duplicate on different days. The results were expressed as geometric means (GM) and ranges. As an antifungal susceptibility testing control, the activity of ITC and AMB against the reference strains C. krusei ATCC 6258 and C. parapsilosis ATCC 22019 was evaluated in all experiments following the CLSI standard M27, 4th Edition. It was mandatory that the MIC values remained in the accepted range.

[4] = system: C. metapsilosis MUM 15.12; test: MIC, CLSI M27 broth microdilution; assay type: cell-based, Candida metapsilosis; details: C. metapsilosis MUM 15.12, antifungal drugs; for MIC: Lodderomyces metapsilosis, MUM15.12, geometric mean, read-out: MIC GM
Method in brief: as §1

[5] = system: C. orthopsilosis MUM 17.13; test: MIC, CLSI M27 broth microdilution; assay type: cell-based, Candida orthopsilosis; details: C. orthopsilosis MUM 17.13, antifungal drugs; for MIC: Lodderomyces orthopsilosis, MUM17.13, geometric mean, read-out: MIC GM
Method in brief: as §1

[6] = system: C. auris CDC B11903; test: MIC, CLSI M27 broth microdilution; assay type: cell-based, Candida auris; details: C. auris CDCB11903, antifungal drugs; for MIC: Candidozyma auris, geometric mean, read-out: MIC GM
Method in brief: as §1

[7] = system: C. auris Ca 10; test: MIC, CLSI M27 broth microdilution; assay type: cell-based, Candida auris; details: antifungal drugs; for MIC: Candidozyma auris, CA10, geometric mean
Method in brief: as §1

[8] = system: C. auris Ca 17; test: MIC, CLSI M27 broth microdilution; assay type: cell-based, Candida auris; details: C. auris Ca 17; for MIC Range / MIC: antifungal drugs; for MIC: Candidozyma auris, CA17, geometric mean, read-out: MIC GM
Method in brief: as §1

[9] = system: C. auris Ca 1; test: MIC, CLSI M27 broth microdilution; assay type: cell-based, Candida auris; details: C. auris Ca 1, antifungal drugs; for MIC: Candidozyma auris, CA1, geometric mean, read-out: MIC GM
Method in brief: as §1

[10] = system: C. auris Ca 32; test: MIC, CLSI M27 broth microdilution; assay type: cell-based, Candida auris; details: C. auris Ca 32, antifungal drugs; for MIC: Candidozyma auris, CA32, geometric mean, read-out: MIC GM
Method in brief: as §1

[11] = system: C. auris Ca 41; test: MIC, CLSI M27 broth microdilution; assay type: cell-based, Candida auris; details: C. auris Ca 41; for MIC Range / MIC: antifungal drugs; for MIC: Candidozyma auris, CA41, geometric mean, read-out: MIC GM
Method in brief: as §1

[12] = system: C. auris Ca 45; test: MIC, CLSI M27 broth microdilution; assay type: cell-based, Candida auris; details: C. auris Ca 45; for MIC Range / MIC: antifungal drugs; for MIC: Candidozyma auris, CA45, geometric mean, read-out: MIC GM
Method in brief: as §1

[13] = system: C. auris Ca 46; test: MIC, CLSI M27 broth microdilution; assay type: cell-based, Candida auris; details: C. auris Ca 46; for MIC Range / MIC: antifungal drugs; for MIC: Candidozyma auris, CA46, geometric mean, read-out: MIC GM
Method in brief: as §1

[14] = system: C. auris Ca 9; test: MIC, CLSI M27 broth microdilution; assay type: cell-based, Candida auris; details: C. auris Ca 9, antifungal drugs; for MIC: Candidozyma auris, CA9, geometric mean, read-out: MIC GM
Method in brief: as §1

[15] = system: C. parapsilosis ATCC 22019; test: MIC, CLSI M27 broth microdilution; assay type: cell-based, Candida parapsilosis; details: antifungal drugs; for MIC: Lodderomyces parapsilosis, ATCC22019, geometric mean
Method in brief: as §1

[16] = system: C. parapsilosis Synlab 406; test: MIC, CLSI M27 broth microdilution; assay type: cell-based, Candida parapsilosis; details: C. parapsilosis Synlab 406; for MIC Range / MIC: antifungal drugs; for MIC: Lodderomyces parapsilosis, SYNLAB406, geometric mean, read-out: MIC GM
Method in brief: as §1

[17] = system: C. albicans ATCC 10231, C. tropicalis ATCC 200956, and C. auris CDC B11903; test: Time–kill assay, control drugs; assay type: cell-based, Candida spp.; details: fungicidal and fungistatic control drugs
Experimental: Time–kill assays with the L. origanoides (thymol + p-cymene) chemotype (Code 0018) EO, thymol, FLC, and AMB against C. albicans ATCC 10231, C. tropicalis ATCC 200956, and C. auris CDC B11903 were performed according to the protocol published by Klebser et al. with some modifications. […] Absorbance at λ = 490 nm was measured every 2 h with a Multiskan SkyHigh Microplate Spectrophotometer. AMB and FLC were included as fungicidal and fungistatic control drugs, respectively.

| Structure (SMILES) | MIC Range [1] | MIC [1] | MIC [2] | MIC Range [2] | MIC [3] | MIC Range [3] | MIC Range [4] | MIC [4] | MIC Range [5] | MIC [5] | MIC Range [6] | MIC [6] | MIC [7] | MIC Range [7] | MIC Range [8] | MIC [8] | MIC Range [9] | MIC [9] | MIC Range [10] | MIC [10] | further results |
| --- | --- | --- | --- | --- | --- | --- | --- | --- | --- | --- | --- | --- | --- | --- | --- | --- | --- | --- | --- | --- | --- |
| OC(Cn1cncn1)(Cn1cncn1)c1ccc(F)cc1F [FLC, fluconazole] | >64 µg/mL | > 64 µg/mL | 1.4 µg/mL (≈ 4.57 µM) | 1 to 2 µg/mL | 2.8 µg/mL (≈ 9.14 µM) | 2 to 4 µg/mL | 1 to 2 µg/mL | 1.4 µg/mL (≈ 4.57 µM) | 1 µg/mL (≈ 3.27 µM) | 1 µg/mL (≈ 3.27 µM) | 1 to 2 µg/mL | 1.4 µg/mL (≈ 4.57 µM) | 4 µg/mL (≈ 13.1 µM) | 4 µg/mL (≈ 13.1 µM) | 32 µg/mL (≈ 104 µM) | 32 µg/mL (≈ 104 µM) | 4 µg/mL (≈ 13.1 µM) | 4 µg/mL (≈ 13.1 µM) | 8 to 16 µg/mL | 11.3 µg/mL (≈ 36.9 µM) | susceptibility category ([8]; CDC breakpoints): FLC-resistant; MIC Range [11]: 2 µg/mL (≈ 6.53 µM); MIC [11]: 2 µg/mL (≈ 6.53 µM); MIC Range [12]: 2 µg/mL (≈ 6.53 µM); MIC [12]: 2 µg/mL (≈ 6.53 µM); MIC Range [13]: 2 to 4 µg/mL; MIC [13]: 2.8 µg/mL (≈ 9.14 µM); MIC Range [14]: 4 µg/mL (≈ 13.1 µM); MIC [14]: 4 µg/mL (≈ 13.1 µM); MIC [15]: 0.7 µg/mL (≈ 2.29 µM); MIC Range [15]: 0.5 to 1 µg/mL; MIC Range [16]: 8 to 16 µg/mL; susceptibility category ([16]; resistance confirmed): resistance; MIC [16]: 11.3 µg/mL (≈ 36.9 µM); effect in time–kill assay (control drugs) [17]: fungistatic |
| C[C@@H]1[C@H](O)[C@@H](C)/C=C/C=C/C=C/C=C/C=C/C=C/C=C/[C@H](O[C@@H]2O[C@H](C)[C@@H](O)[C@H](N)[C@@H]2O)C[C@@H]2O[C@](O)(C[C@@H](O)C[C@@H](O)[C@H](O)CC[C@@H](O)C[C@@H](O)CC(=O)O[C@H]1C)C[C@H](O)[C@H]2C(=O)O [AMB, amphotericin B] | 1 to 2 µg/mL | 1.41 µg/mL (≈ 1.53 µM) | 0.11 µg/mL (≈ 0.119 µM) | 0.06 to 0.12 µg/mL | 0.06 µg/mL (≈ 0.0649 µM) | 0.06 to 0.12 µg/mL | <0.03 µg/mL | < 0.03 µg/mL | <0.03 µg/mL | < 0.03 µg/mL | 0.06 to 0.12 µg/mL | 0.07 µg/mL (≈ 0.0758 µM) | 0.18 µg/mL (≈ 0.195 µM) | 0.12 to 0.25 µg/mL | 0.06 to 0.25 µg/mL | 0.15 µg/mL (≈ 0.162 µM) | 0.12 to 0.25 µg/mL | 0.2 µg/mL (≈ 0.216 µM) | 0.12 to 0.5 µg/mL | 0.19 µg/mL (≈ 0.206 µM) | susceptibility category ([1]; resistance confirmed): resistance; susceptibility category ([11]; CDC breakpoints): AMB-resistant; MIC Range [11]: 1 µg/mL (≈ 1.08 µM); MIC [11]: 1 µg/mL (≈ 1.08 µM); susceptibility category ([12]; CDC breakpoints): AMB-resistant; MIC Range [12]: 1 to 2 µg/mL; MIC [12]: 1.41 µg/mL (≈ 1.53 µM); susceptibility category ([13]; CDC breakpoints): AMB-resistant; MIC Range [13]: 1 to 2 µg/mL; MIC [13]: 1.4 µg/mL (≈ 1.52 µM); MIC Range [14]: 0.12 to 0.5 µg/mL; MIC [14]: 0.25 µg/mL (≈ 0.271 µM); MIC [15]: 0.06 µg/mL (≈ 0.0649 µM); MIC Range [15]: 0.06 µg/mL (≈ 0.0649 µM); MIC Range [16]: 0.06 to 0.25 µg/mL; MIC [16]: 0.15 µg/mL (≈ 0.162 µM); effect in time–kill assay (control drugs) [17]: fungicidal |
